2 compounds from the NIST ThermoML archive (doi:10.1016/j.tca.2012.02.012) can be followed below.

Molecules are shown by their SMILES. Numbers after ± are expanded uncertainties.

Data set [1] is described as follows: xn = mol fraction of the nth substance listed. To be noted: 1850 K, 101 kPa, Liquid, Knudsen.
Data set [2] can be described thus: excess molar enthalpy (molar enthalpy of mixing); xn = mol fraction of the nth substance listed. To be noted: 1850 K, 101 kPa, Liquid, Knudsen.

Regarding `[Fe]` [iron] + [Au], in data set [1] (x1 = 0.5), the “excess molar Gibbs energy” value is -0.1819 ± 0.000239 kcal/mol. In data set [2] (x1 = 0.5), the excess molar enthalpy came to 1.76 ± 0.0179 kcal/mol.
In the case of `[Pd]` [palladium] + [Fe], in data set [1] (x2 = 0.5), the “excess molar Gibbs energy” value is -1.7232 ± 0.000239 kcal/mol. In addition, the excess molar enthalpy in data set [2] (x2 = 0.5) is -5.999 ± 0.0598 kcal/mol.
